Assay results as given in patent US10081609B2, “Compounds for inducing proliferation and differentiation of cells, and methods of use thereof” (The Broad Institute, Inc., priority 2013, dated 2018).

Experiments:
[1] = system: lfabp:GFP zebrafish embryos; settings: clinical treatment for APAP toxicity; cited from earlier work
[2] = system: human primary hepatocytes; assay: High-throughput liver platform, primary screening: secreted albumin by competitive ELISA; type: cell-based
Excerpt: In order to evaluate the phenotype of treated cells, a secondary readout was included to quantify hepatocyte functions via competitive ELISA. This biochemical assay measured the level of secreted albumin as a marker for protein synthesis functions of the cultured hepatocytes (FIG. 1A bottom).
FIG. 1B top summarizes the workflow of the screen. Primary screening was done on human primary hepatocytes, preconditioned for seven days by non-parenchymal cells in the screening platform. Upon stabilization in vitro, cultures were treated with the chemical library for 48 hours. All compounds were tested in duplicates, at a single concentration of 15 μM. This single concentration was selected via a pilot screen of ˜2,000 small molecules. All 12,480 small molecules were initially tested on a single donor of cryopreserved hepatocytes (donor a) in order to eliminate noise from donor-to-donor variability. Following compound treatment, media supernatants were collected for functional analyses via ELISA and cultures were fixed in 4% paraformaldehyde for proliferation analyses via imaging.

iHeps [3] = assay: Differentiation of human iPS-derived hepatocytes (iHeps): morphology and immunofluorescent staining; type: cell-based
Experimental: (§1) The ability of compounds of the invention to affect the differentiation and maturation of iHeps was tested. Undifferentiated iPS cells were cultured on Matrigel, supported by primary mouse embryonic fibroblasts. Once confluent, iPS cells were transitioned to differentiation media, with sequential addition of growth factors (Activin A, BMP-4, bFGF, HGF, and OSM) to guide differentiation, first into endoderm, then into hepatic progenitor cells and finally into iHeps. Compound treatment started on day 21 post initiation of differentiation and acted over a period of 9 days. FH1 and FPH2 were used to treat iHeps. FH1 doubled albumin secretion during primary screening (FIG. 4A left) in a dose-responsive manner (FIG. 4A right).
To examine the effects of FH1 and FPH2 at the protein level, AFP, albumin and CYP3A4 levels weew visualized via immunofluorescent staining. […] This is in agreement with primary screening results as well as earlier morphological findings. Untreated cultures had islands that double stain for albumin and the fetal marker AFP, with very little presence of the mature marker CYP3A4.

iHeps [4] = assay: Gene expression profiles of treated iHeps (Luminex); type: cell-based, human
Experimental: Cells were lysed using RLT buffer (Qiagen) or Trizol (Invitrogen) and purified using the Mini-RNeasy kit (Qiagen). Gene expression was determined using Luminex analysis, as previously described. Briefly, total RNA was immobilized on a Qiagen turbo capture 384-well plate, and reverse-transcribed using oligodT priming A biotinylated FlexMap tag sequence unique to each gene of interest and a phosphorylated downstream probe were then added to resulting cDNAs to generate biotinylated FlexMap-tagged amplicons. Universal PCR was then performed for 35 cycles using a biotinylated T7 forward primer and T3 reverse primer in buffer with dNTPs and Taq polymerase. FlexMap microsphere beads conjugated with antitag oligonucleotides were then added and allowed to hybridize. Amplicons were captured by streptavidin-phyoerythrin, and 100 events per bead were analyzed for internal bead color and phyoerythrin reporter fluorescence on a Luminex FlexMap 3D analyzer. Data for replicate loadings, expressed in mean fluorescent intensity of at least 100 beads per sample, were scaled to the human transferrin gene and row-normalized for heat map representation using GeneE open software (Broad Institute).
as §1
Euclidian clustering analyses groups untreated cells with fetal hepatocytes and treated cells with mature hepatocytes (FIG. 4C left). Of particular interest are ABC transporters, CYP3A4 and GSTP1 expression levels. ABC transporters are known to mature after birth. ABCB11, also known as bile-salt export pump (BSEP), increased ˜3 fold and ˜4 fold in expression levels with FPH2 and FH1 treatment, respectively, compared to untreated iHeps. In contrast, GSTP1 expression, whose levels decrease with maturity, remained low upon FPH2 and FH1 treatment compared to untreated iHeps (FIG. 4C right).

iHeps [5] = assay: CYP450 activities of treated iHeps through isoenzyme-specific probes; type: cell-based, human
Experimental: Culture media were collected and frozen at −20° C. until analysis. Albumin content was measured through sandwich ELISA assays (MP Biomedicals, Fitzgerald, Bethyl Laboratories) using horseradish peroxidase detection and 3,3′,5,5′-tetramethylbenzidine (TMB, Fitzgerald Industries) as a substrate. Urea concentration was determined colorimetrically using diacetylmonoxime with acid and heat (Stanbio Labs). To quantify CYP450 activity, at 48 hours after small molecule exposure, cultures were incubated with substrates (coumarin from Sigma for CYP2A6, luciferin-IPA from Promega for CYP3A4) for 4 hours at 37° C. Incubation medium was collected and metabolite concentration quantified via luminescence, or fluorescence after hydrolization of potential metabolite conjugates by β-glucuronidase/arylsulfatase (Roche, Ind.).
The ability of compounds of the invention to affect the differentiation and maturation of iHeps was tested. Undifferentiated iPS cells were cultured on Matrigel, supported by primary mouse embryonic fibroblasts. […]
To confirm the staining results, secreted levels of albumin and AFP via ELISA, and CYP450 activities through isoenzyme-specific probes that are either fluorescent or luminescent were measured. […]

[6] = system: transgenic lfabp:GFP zebrafish; assay: Liver development in transgenic lfabp:GFP zebrafish embryos; type: in vivo; settings: exposure 24 to 72 hrs post fertilization
Excerpt: The effects of FH1 and PH1 on liver development were examined in transgenic lfabp:GFP zebrafish, in which GFP expression is restricted to the liver. Zebrafish embryos were allowed to develop normally for 24 hrs post fertilization and then exposed to either FH1 or PH1 until 72 hrs post fertilization (FIG. 8A). Livers were visualized by whole-mount fluorescence imaging (FIG. 8B) and lfabp in situ hybridization (FIG. 8C).

[7] = system: lfabp:GFP zebrafish embryos; assay: Survival of zebrafish embryos after a fatal dose of APAP; type: in vivo; settings: 10 mM APAP concurrently with compound, from 72 hrs post fertilization
Experimental: The effect of FH1 on zebrafish survival following APAP-induced toxicity was examined. lfabp:GFP zebrafish embryos were allowed to develop normally for 72 hrs post fertilization and then exposed to a fatal dose of 10 mM APAP concurrently with FH1 (FIG. 9A).

[8] = system: lfabp:GFP zebrafish embryos; assay: Therapeutic window after a non-fatal dose of APAP in zebrafish embryos (liver size); type: in vivo; settings: 5 mM APAP for 24 hrs before 24 hour treatment
Experimental: The current clinical treatment for APAP toxicity is the administration of NAC, which has a limited window of efficacy. To examine the therapeutic window of FH1 and PH1 efficacy, lfabp:GFP zebrafish embryos were allowed to develop normally for 48 hrs post fertilization, and then exposed to a non-fatal dose of 5 mM APAP for 24 hrs before initiation of treatment with FH1 or PH1 for an additional 24 hour period (FIG. 10A).

[9] = system: iPS-derived endothelial cells; assay: Differentiation of iPS-derived endothelial cells (nitric oxide); type: cell-based
Experimental: Cells were assayed for nitric oxide (NO), a mature marker for endothelial cells. CB=FPH2, M=FH1, E=PH1, while Null and DMSO are control runs with no additive and vehicle only, respectively.

Row | SMILES | typical therapeutic window [1] [h] | albumin secretion during primary screening [2] | staining of treated islands for albumin, CYP3A4 and AFP (iHeps [3]; immunofluorescent staining) | albumin staining (immunofluorescent) (iHeps [3]; treated iHeps) | hepatocyte phenotype of treated iHeps (iHeps [3]; treatment from day 21, 9 days) | ABCB11 (BSEP) expression level increase compared to untreated iHeps (iHeps [4]) [fold] | GSTP1 expression compared to untreated iHeps (iHeps [4]) | CYP3A4 activity increase (iHeps [5]) [times] | liver size compared to DMSO-treated controls [6] | survival of embryos [7] [%] | embryonic liver size / liver mass after APAP compared to controls [8] | differentiation of iPS-derived endothelial cells (nitric oxide) [9]
1 | CC(=O)N[C@@H](CS)C(=O)O [NAC] | ~8 | – | – | – | – | – | – | – | – | – | – | –
2 | CC(=O)Nc1ccc(Cc2ccc(NC(C)=O)cc2)cc1 [FH1, N,N′-(methylenebis(4,1-phenylene))diacetamide] | – | doubled | double stained strongly for albumin and CYP3A4, with very minimal presence of AFP | dramatic increases | more mature hepatocyte phenotypes | ~4 | remained low | 16 | increased | 71 | mitigated APAP-induced loss of liver mass | induce differentiation
